Consider 4 compounds from US6034056A, “Fibronectin adhesion inhibitors” (Zeneca Limited, priority 1994, dated 2000).

Where a SMILES comes first, the peptide text is derived from it. [ ]: non-standard residue; d: D form. βAla = NCCC(=O)O

One assay has as its system Jurkat cells. Particulars: cited from earlier work.
The next assay has as its system Jurkat cell. Particulars: read-out: IC50, blocking Jurkat cell adhesion to CS-1 coated plates; cited from earlier work.
The next assay concerns the target αvβ3 (Homo sapiens, UniProt P05106+P06756). Particulars: cited from earlier work.
A further assay addresses αIIbβIIIa (Homo sapiens, UniProt P05106+P08514). Particulars: cited from earlier work.
The nature of assay [1]: biological tests (not specified). Particulars: at 200 μM.
In a further assay the test system is leukocyte cell. Conditions: cited from earlier work.
Assay [2] concerns 120 kDa chymotryptic fragment of fibronectin. Particulars: cited from earlier work.

αIIbβIIIa, sequence (P08514 32-887 limits assumed): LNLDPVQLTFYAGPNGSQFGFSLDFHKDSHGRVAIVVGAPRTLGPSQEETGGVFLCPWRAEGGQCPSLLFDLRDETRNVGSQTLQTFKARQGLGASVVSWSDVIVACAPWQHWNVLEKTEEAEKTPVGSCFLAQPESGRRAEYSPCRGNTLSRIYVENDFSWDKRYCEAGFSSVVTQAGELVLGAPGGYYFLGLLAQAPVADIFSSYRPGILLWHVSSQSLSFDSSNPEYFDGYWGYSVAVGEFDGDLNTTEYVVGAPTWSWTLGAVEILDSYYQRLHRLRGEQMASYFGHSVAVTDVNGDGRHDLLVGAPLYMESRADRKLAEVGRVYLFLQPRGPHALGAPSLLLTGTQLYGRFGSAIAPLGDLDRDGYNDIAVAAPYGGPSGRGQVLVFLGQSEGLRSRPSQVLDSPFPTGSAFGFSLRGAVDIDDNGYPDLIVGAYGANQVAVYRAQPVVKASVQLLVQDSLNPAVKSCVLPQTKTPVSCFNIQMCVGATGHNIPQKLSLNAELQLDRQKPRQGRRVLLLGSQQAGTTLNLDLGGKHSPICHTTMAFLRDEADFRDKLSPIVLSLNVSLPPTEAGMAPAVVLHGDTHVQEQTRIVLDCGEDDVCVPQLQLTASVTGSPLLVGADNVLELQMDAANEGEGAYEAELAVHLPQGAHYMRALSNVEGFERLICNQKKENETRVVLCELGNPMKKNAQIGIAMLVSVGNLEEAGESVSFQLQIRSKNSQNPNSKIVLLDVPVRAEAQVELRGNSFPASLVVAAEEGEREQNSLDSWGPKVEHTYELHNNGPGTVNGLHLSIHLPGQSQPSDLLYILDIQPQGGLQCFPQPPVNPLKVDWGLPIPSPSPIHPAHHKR
αIIbβIIIa, sequence (P08514 891-1039 partner limits assumed): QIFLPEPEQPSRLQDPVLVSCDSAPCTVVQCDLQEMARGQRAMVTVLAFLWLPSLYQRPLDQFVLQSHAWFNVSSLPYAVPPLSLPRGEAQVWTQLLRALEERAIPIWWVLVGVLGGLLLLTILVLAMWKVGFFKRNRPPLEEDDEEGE
αIIbβIIIa, sequence (P05106 27-788): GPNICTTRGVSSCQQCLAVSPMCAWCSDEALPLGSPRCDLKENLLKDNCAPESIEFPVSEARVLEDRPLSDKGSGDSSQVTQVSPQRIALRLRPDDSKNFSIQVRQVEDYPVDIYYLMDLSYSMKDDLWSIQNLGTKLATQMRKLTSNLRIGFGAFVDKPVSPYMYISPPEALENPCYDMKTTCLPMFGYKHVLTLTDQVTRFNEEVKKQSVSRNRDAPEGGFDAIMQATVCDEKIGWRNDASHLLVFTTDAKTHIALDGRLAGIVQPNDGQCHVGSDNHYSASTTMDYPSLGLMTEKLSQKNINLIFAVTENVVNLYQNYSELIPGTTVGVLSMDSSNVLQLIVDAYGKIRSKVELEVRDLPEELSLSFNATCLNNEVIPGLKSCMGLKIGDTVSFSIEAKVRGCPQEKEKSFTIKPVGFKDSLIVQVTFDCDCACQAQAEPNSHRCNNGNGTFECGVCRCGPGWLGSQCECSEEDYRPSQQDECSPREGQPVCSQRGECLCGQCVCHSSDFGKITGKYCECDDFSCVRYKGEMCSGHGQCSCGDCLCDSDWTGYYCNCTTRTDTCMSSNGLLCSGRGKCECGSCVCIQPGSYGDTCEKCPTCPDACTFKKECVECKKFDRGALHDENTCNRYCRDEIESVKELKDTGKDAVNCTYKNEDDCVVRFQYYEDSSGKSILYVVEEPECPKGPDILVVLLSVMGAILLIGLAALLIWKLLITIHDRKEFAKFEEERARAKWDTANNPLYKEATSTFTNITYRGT
αvβ3, sequence (P06756 31-889 limits assumed): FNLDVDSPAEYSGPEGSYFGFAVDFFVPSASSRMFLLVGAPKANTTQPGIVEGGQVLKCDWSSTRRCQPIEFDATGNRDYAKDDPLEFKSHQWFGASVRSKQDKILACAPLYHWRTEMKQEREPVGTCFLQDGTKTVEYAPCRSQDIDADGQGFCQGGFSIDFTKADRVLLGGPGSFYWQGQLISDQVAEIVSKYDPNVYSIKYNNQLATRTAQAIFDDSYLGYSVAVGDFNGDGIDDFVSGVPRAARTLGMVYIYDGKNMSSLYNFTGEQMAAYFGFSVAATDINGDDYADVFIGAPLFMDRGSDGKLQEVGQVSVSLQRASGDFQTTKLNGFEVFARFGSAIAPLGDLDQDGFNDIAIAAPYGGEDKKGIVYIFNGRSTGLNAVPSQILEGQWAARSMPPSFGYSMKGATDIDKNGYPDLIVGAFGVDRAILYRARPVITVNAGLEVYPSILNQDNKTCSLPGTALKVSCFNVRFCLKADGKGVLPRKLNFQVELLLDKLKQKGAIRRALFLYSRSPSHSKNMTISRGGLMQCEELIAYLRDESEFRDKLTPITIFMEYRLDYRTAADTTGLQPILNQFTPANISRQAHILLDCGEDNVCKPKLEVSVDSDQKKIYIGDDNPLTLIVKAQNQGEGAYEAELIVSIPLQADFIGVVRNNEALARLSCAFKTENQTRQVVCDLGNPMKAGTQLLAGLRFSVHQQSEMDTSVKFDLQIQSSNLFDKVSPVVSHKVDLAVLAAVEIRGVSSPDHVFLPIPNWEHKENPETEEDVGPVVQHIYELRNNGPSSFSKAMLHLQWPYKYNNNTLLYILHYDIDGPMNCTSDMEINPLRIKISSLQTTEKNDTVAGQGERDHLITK
αvβ3, sequence (P06756 891-1048 partner limits assumed): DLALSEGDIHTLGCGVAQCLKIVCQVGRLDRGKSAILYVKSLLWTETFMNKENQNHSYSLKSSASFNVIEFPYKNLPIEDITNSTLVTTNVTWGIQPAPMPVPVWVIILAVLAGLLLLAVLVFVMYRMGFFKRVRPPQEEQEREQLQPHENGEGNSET
αvβ3, sequence (P05106 27-788): as the sequence (P05106 27-788) above

In general, IC50 refers to the concentration that gives 50% inhibition. Consider “1-adamantaneacetyl-Cys-Gly-Arg-Gly-Asp-Ser-Pro-Cys”, for which the “inhibition of Jurkat cell binding to fibronectin coated plates” value with Jurkat cells was “inhibited the binding”. Moreover, the IC50 with Jurkat cell is 30 µM. Moreover, the “inhibition of function in αvβ3-dependent assay” value at αvβ3 is listed as “inhibited function”. For the same compound, the “inhibition of function in αIIbβIIIa-dependent assay” value on αIIbβIIIa is “inhibited function”.
For `CC[C@H](C)[C@@H]1NC(=O)CCNC(=O)[C@H](C(C)C)NC(=O)[C@H](CC(=O)O)NC(=O)[C@H](CC(C)C)NC1=O` (cyclo(DV[βAla]IL)), the “activity in biological tests” value in assay [1] is “inactive”.
In the case of Arg-Cys-Asp-thioproline-Cys, the “inhibition of leukocyte cell adhesion to fibronectin” value in the assay with leukocyte cell is reported as “inhibitor of leukocyte cell adhesion to fibronectin”. In assay [2], the “inhibition of binding to 120 kDa fibronectin fragment” value was “inhibited the binding”.
“Cys-Leu-His-Gly-Pro-Glu-Ile-Ieu-Asp-Val-Pro-Ser-Thr”: in the assay on Jurkat cell, the IC50 is 30 µM.
